# Laboratory results: patent US20140018418A1 (priority 2007, published 2014)
# Read-outs that look alike come from different tables or passages of the source.
# Assays:
# [1] = system: H5N1 influenza virus A/Hanoi/30408/2005 (clone 7), oseltamivir sensitive strain; test: microbe, parasite or virus in culture; assay type: cell-based
# [2] = system: A/Hanoi/UT30408(clone 7)/2005 (H5N1); set-up: species or system mice (Balb/c); details: mouse, in vivo
molecule,measurement,setting,value
"CO[C@@H]([C@@H]1OC(C(=O)O)=C[C@H](NC(=N)N)[C@H]1NC(C)=O)[C@H](O)CO [Compound of Preparation Example 2, 5-Acetamido-4-guanidino-2,3,4,5-tetradeoxy-7-O-methyl-D-glycero-D-galacto-non-2-enopyranosoic acid]",IC50,"[1]; Influenza A virus, H5N1, MDCK, read-out: Viral Proliferation Inhibitory Activity (IC50, nM)",0.43 nM
"CC(=O)N[C@H]1[C@H]([C@H](O)[C@H](O)CO)OC(C(=O)O)=C[C@@H]1N=C(N)N [Zanamivir, reference compound]",IC50,[1]; read-out: Viral Proliferation Inhibitory Activity (IC50),3.3 nM
"5-Acetamido-4-guanidino-9-O-octanoyl-2,3,4,5-tetradeoxy-7-O-methyl-D-glycero-D-galacto-non-2-enopyranosoic acid [Compound of Preparation Example 1]","number of mice surviving, Day 10",[2],7
